Measurements published in publication PMC11974063 (BMC Medicine, 2025).

Target: Influenza HA2 protein
Format: binding

COCCOC(=O)C1=C(C)NC(C)=C(C(=O)OC/C=C/c2ccccc2)C1c1cccc([N+](=O)[O-])c1 (stereo not shown) [cilnidipine]
Kd: 0.032 µM
